Source: the RepoRT retention time repository (doi:10.1016/j.jhazmat.2019.121712)

experiment: Thermo Scientific Acclaim RSLC 120 C18, 100 × 2.1 mm, 2.2 µm, 30 °C; A: 90% water + 10% methanol + 0.01% formic acid + 5 mM ammonium formate; B: methanol + 0.01% formic acid + 5 mM ammonium formate; gradient (min/%B) 0.1/1 3/39 14/99.9 16/99.9; conditions: stereoisomer not certain

SMILES	LC retention time [min]
CCCCN(CCCC)CCCC	5.28
CCCCCc1cc(O)c2c(c1)OC(C)(C)C1CCC(C(=O)O)=CC21 (configuration not stated)	12.5
CSc1ccc(CC(C)N)cc1 (configuration not stated)	5.24
Nc1cc(-c2ccncc2)c[nH]c1=O	2.88
CCCSc1cc(OC)c(CCN)cc1OC	6.98
CNS(=O)(=O)Cc1ccc2[nH]cc(CCN(C)C)c2c1	3.43
CNC(=N[N+](=O)[O-])NCC1CCOC1 (configuration not stated)	3.59
COc1ccc2cc(C(C)C(=O)O)ccc2c1 (configuration not stated)	8.99
O=C1c2ccccc2C(=O)C1C(=O)C(c1ccccc1)c1ccccc1	8.6
CN1C2CCC1CC(OC(=O)C(CO)c1ccccc1)C2 (configuration not stated)	4.36
CC1=NNC(=O)N(N=Cc2cccnc2)C1	4.01
CCCCCCC(C)(C)c1ccc(C2CCCC(O)C2)c(O)c1 (configuration not stated)	13.1
CC(N)Cc1ccccc1 (configuration not stated)	4.16
CCOC(=O)C(CCc1ccccc1)NC1CCCN2CCCC(C(=O)O)N2C1=O (configuration not stated)	7.94
C#CCOS(=O)OC1CCCCC1Oc1ccc(C(C)(C)C)cc1 (configuration not stated)	12.8
OCCN1CCN(CCCN2c3ccccc3C=Cc3ccccc32)CC1	7.83
CCS(=O)(=O)CCn1c([N+](=O)[O-])cnc1C	3.86
CCOP(=S)(OCC)SCCS(=O)(=O)CC	8.02
COc1ccc(C(=O)c2c(C)n(CCN3CCOCC3)c3ccccc23)cc1	9.55
CC(C)(C)N1CCC(c2ccccc2)(c2ccccc2)CC1	6.72
Cc1ccc(N=CN(C)C=Nc2ccc(C)cc2C)c(C)c1	13.3
COc1ccc(CCN(C)CCCC(C#N)(c2ccc(OC)c(OC)c2)C(C)C)cc1OC (configuration not stated)	7.03
CCCCCn1c(C)c(C(=O)c2cccc3ccccc23)c2ccccc21	12.6

SMILES	LC retention time [min]
CC(C)NCC(O)COc1cccc2[nH]ccc12 (configuration not stated)	3.89
CCOC(=O)N(C)C(=O)CSP(=S)(OCC)OCC	10.2
C1=Cc2ccccc2Nc2ccccc21	10.1
CCCCCn1cc(C(=O)Cc2ccccc2OC)c2ccccc21	11.8
CN(C)CCC=C1c2ccccc2COc2ccccc21	7.01
CN1CCC23c4c5ccc(O)c4OC2C(O)C=CC3C1C5 (configuration not stated)	2.54
CC(=O)Oc1ccc(C(c2ccc(OC(C)=O)cc2)c2ccccn2)cc1	8.92
COc1ccccc1OCCNCC(O)COc1cccc2[nH]c3ccccc3c12 (configuration not stated)	6.91
COP(=O)(NC(C)=O)SC (configuration not stated)	3.11
CC(C)NCC(O)COc1cccc2[nH]c3ccccc3c12 (configuration not stated)	5.49
CNCC1CCCCC1(O)c1cccc(OC)c1 (configuration not stated)	5.3
CC(Cc1ccc(C(C)(C)C)cc1)CN1CC(C)OC(C)C1 (configuration not stated)	10.7
CC(C)C(N)C(=O)OCC(CO)OCn1cnc2c(=O)[nH]c(N)nc21 (configuration not stated)	2.71
C=C1CC2C(CCC3(C)C(=O)CCC23)C2(C)C=CC(=O)C=C12 (configuration not stated)	9.03
CCC(C)(C)C(=O)OC1CC(C)C=C2C=CC(C)C(CCC3CC(O)CC(=O)O3)C21 (configuration not stated)	12.6
O=C1OCCN1N=Cc1ccc([N+](=O)[O-])o1	4.19
CN1CCN(C)C1=O	3.53
COC(=O)C1C(OC(=O)c2ccccc2)CC2CCC1N2C (configuration not stated)	4.84
Cc1cc(C)cc(C(=O)N(NC(=O)c2ccc3c(c2C)CCCO3)C(C)(C)C)c1	9.93
CC1(c2ccc(Oc3ccccc3)cc2)OC(=O)N(Nc2ccccc2)C1=O (configuration not stated)	11
CC(C)(C)c1ccc(CCOc2ncnc3ccccc23)cc1	13.7
CCNC(=O)C(C)OC(=O)Nc1ccccc1 (configuration not stated)	6.58
CCCc1nn(C)c2c(=S)nc(-c3cc(S(=O)(=O)N4CCN(C)CC4)ccc3OCC)[nH]c12	10.6

SMILES	LC retention time [min]
Cc1occc1C(=O)Nc1ccccc1	7.59
CN1C(=O)CCC1c1cccnc1 (configuration not stated)	3.75
CCN(CC)CCNC(=O)COc1ccc(OC)cc1	4.31
COC(=O)c1sccc1S(=O)(=O)NC(=O)Nc1nc(C)nc(OC)n1	6.24
COCCCOc1ccnc(CS(=O)c2nc3ccccc3[nH]2)c1C (configuration not stated)	7.52
CCCCCc1cc(O)c2c(c1)OC(C)(C)c1ccc(C)cc1-2	13.7
Cc1oc(C)c(C(=O)Nc2ccccc2)c1C	8.79
CCCCCCCCCc1ccc(OCCO)cc1	13.2
CN(C)CCCN1c2ccccc2Sc2cccnc21	7.21
COc1ccccc1CC(=O)c1cn(CCC2CCCCC2)c2ccccc12	13
CCCc1cc(C(N)=S)ccn1	6.36
C=CCN1CCCC1CNC(=O)c1cc2n[nH]nc2cc1OC (configuration not stated)	3.62
CN1CCN(CCC=C2c3ccccc3Sc3ccc(S(=O)(=O)N(C)C)cc32)CC1	8.38
CC1C=CC=CCCC=CC=CC=CC=CC(OC2OC(C)C(O)C(N)C2O)CC2OC(O)(CC(O)C(O)CCC(O)CC(O)CC(O)CC(=O)OC(C)C(C)C1O)CC(O)C2C(=O)O (configuration not stated)	10.3
CCOc1ccc2c3c1OC1C(O)C=CC4C(C2)N(C)CCC341 (configuration not stated)	4.08
CCNc1nc(NCC)[nH]c(=O)n1	4.21
C#CC[N+](C)([O-])C(C)Cc1ccccc1 (configuration not stated)	5.33
CCCc1nn(C)c2c(=O)[nH]c(-c3cc(S(=O)(=O)N4CCNCC4)ccc3OCC)nc12	7.35
CCCCc1ncc(C=C(Cc2cccs2)C(=O)O)n1Cc1ccc(C(=O)O)cc1	7.49
COc1cnc(NS(=O)(=O)c2ccc(N)cc2)nc1	4.18
CC1(C)OCC2OC3(C(=O)O)OC(C)(C)OC3C2O1 (configuration not stated)	4.76
CNC(=C[N+](=O)[O-])NCCSCc1ccc(C[N+](C)(C)[O-])o1	3.43
CCCCCCn1c(=O)c2c(ncn2C)n(C)c1=O	9.44

SMILES	LC retention time [min]
CC1CCC2N(C1)CC1C3CC4C(CC(O)C5CC(O)CCC54C)C3CCC1C2(C)O (configuration not stated)	6.44
CCC(C)C(=O)OC1CC(O)C=C2C=CC(C)C(CCC(O)CC(O)CC(=O)O)C21 (configuration not stated)	8.36
CSc1nnc(C(C)(C)C)c(=O)n1N	7.07
COc1ccc2c3c1OC1C(=O)CCC4(O)C(C2)NCCC314 (configuration not stated)	3.71
CSc1nc(NC(C)C)nc(NC(C)C)n1	10.1
COC1C=COC2(C)Oc3c(C)c(O)c4c(O)c(c5c(nc6cc(C)ccn65)c4c3C2=O)NC(=O)C(C)=CC=CC(C)C(O)C(C)C(O)C(C)C(OC(C)=O)C1C (configuration not stated)	10.1
c1ccc(CN2CCNCC2)cc1	4.23
CNCCC=C1c2ccccc2COc2ccccc21	7.03
C=CCOc1ccccc1OCC(O)CNC(C)C (configuration not stated)	5.66
CCC(c1ccccc1)c1c(O)c2ccccc2oc1=O (configuration not stated)	9.05
CC(CCc1ccc(O)cc1)NCC(O)c1ccc(O)cc1 (configuration not stated)	4.39
CCN(CC)CCNC(=O)c1cc(S(C)(=O)=O)ccc1OC	3.41
NCCc1ccccc1	3.57
CCCn1c(C)c(C(=O)c2cccc3ccccc23)c2ccccc21	11.5
CN(C)NC(=O)CCC(=O)O	6.28
OC(c1ccccc1)(c1ccccc1)C1CCCCN1 (configuration not stated)	5.78
CCCCCn1cc(C(=O)CC(C)(C)C(C)(C)O)c2ccccc21	11.6
CCOP(=S)(OCC)SCSP(=S)(OCC)OCC	12.4
COc1cc(NS(=O)(=O)c2ccc(N)cc2)ncn1	4.75
COC(=O)C1=C(C)NC(C)=C(C(=O)OCC(C)C)C1c1ccccc1[N+](=O)[O-] (configuration not stated)	10.6
CC(Cn1cnc2c(N)ncnc21)OCP(=O)(O)O (configuration not stated)	2.69
CCNc1nc(NC(C)C)nc(OC)n1	7.81
CCCc1nc2c(C)cc(-c3nc4ccccc4n3C)cc2n1Cc1ccc(-c2ccccc2C(=O)O)cc1	10.3

SMILES	LC retention time [min]
CCCCCn1cc(C(=O)N2CCN(C)CC2)c2ccccc21	7.75
C=C1CC23CC1(O)CCC2C12C=CC(O)C(C)(C(=O)O1)C2C3C(=O)O (configuration not stated)	4.91
C[N+](C)([O-])CCC(c1ccccc1)c1ccccn1 (configuration not stated)	5.39
CC(=O)N=c1sc(S(N)(=O)=O)nn1C	4.28
NCC1CCCCC1(O)c1cccc(O)c1 (configuration not stated)	4.36
CCOP(=S)(NC(C)CC)Oc1cc(C)ccc1[N+](=O)[O-] (configuration not stated)	11.2
CCCCCCCCc1ccc(OCCOCCO)cc1	14.1
COc1ncnc(NS(=O)(=O)c2ccc(N)cc2)c1OC	4.75
CNC(C)Cc1ccc(O)c(OC)c1 (configuration not stated)	3.19
Cc1cc(O)ccc1CC(C)N (configuration not stated)	2.98
CCCCCn1cc(C(=O)c2cccc3ccccc23)cc1-c1ccccc1C	13.4
CCSCCSP(=S)(OC)OC	10.2
CCN(C)C(=O)Oc1cccc(C(C)N(C)C)c1 (configuration not stated)	4.74
COc1cc(OC)nc(Oc2cccc(Oc3nc(OC)cc(OC)n3)c2C(=O)O)n1	8.86
c1cc2c(cc1CN1CCNCC1)OCO2	4.22
CCOC(=O)C(CCc1ccccc1)NC(C)C(=O)N1C(C(=O)O)CC2CCCCC21 (configuration not stated)	9.55
CCCCCn1c(O)c(C(=O)c2cccc3ccccc23)c2ccccc21	14
CNC(=O)ON=C(C)SC	4.16
CC12CCC(=O)C=C1C=CC1C2CCC2(C)C1CCC21CCC(=O)O1 (configuration not stated)	9.77
Cc1cc(C)c(C2=C(OC(=O)CC(C)(C)C)C3(CCCC3)OC2=O)c(C)c1	12.8
